Experimental data reported in patent publication US11707447B1.
Read-outs that look alike come from different tables or passages of the source.

Tests used:
[1] = biological target: HTR3A (5-HT3A) (Homo sapiens, UniProt P46098); assay: SAFETYscan ion channel assay, FLIPR membrane potential (opener/blocker); assay type: cell-based
[2] = biological target: ADRA2A (Homo sapiens, UniProt P08913); assay: SAFETYscan EFC-based cAMP secondary messenger assay (agonist/antagonist mode)
[3] = biological target: NET (Homo sapiens, UniProt P23975); assay: Neurotransmitter transporter uptake assay (blocker)
[4] = biological target: HTR1A (5-HT1A) (Homo sapiens, UniProt P08908); assay: SAFETYscan EFC-based cAMP secondary messenger assay (agonist/antagonist mode)
[5] = biological target: T1, MAO-A (Homo sapiens, UniProt P21397); assay: MAO-A enzyme assay (kynuramine substrate); assay type: biochemical
T1 construct: purchased Sigma

[6] = biological target: HTR1B (5-HTR1B) (Homo sapiens, UniProt P28222); assay: SAFETYscan EFC-based cAMP secondary messenger assay (agonist/antagonist mode)
[7] = biological target: SERT (Homo sapiens, UniProt P31645); assay: cell-based; settings: blocker mode
[8] = biological target: DRD2S (Homo sapiens, UniProt P14416); assay: SAFETYscan EFC-based cAMP secondary messenger assay (agonist/antagonist mode)
[9] = biological target: T2, 5-HT1A receptor (Homo sapiens, UniProt P08908); assay: cAMP-Glo assay in +5-HT1A / -5-HT1A CHO-K1 cells; assay type: cell-based
T2 construct: host or cells: CHO-K1 (co-expressing Ga15)
T2 sequence (P08908 1-422): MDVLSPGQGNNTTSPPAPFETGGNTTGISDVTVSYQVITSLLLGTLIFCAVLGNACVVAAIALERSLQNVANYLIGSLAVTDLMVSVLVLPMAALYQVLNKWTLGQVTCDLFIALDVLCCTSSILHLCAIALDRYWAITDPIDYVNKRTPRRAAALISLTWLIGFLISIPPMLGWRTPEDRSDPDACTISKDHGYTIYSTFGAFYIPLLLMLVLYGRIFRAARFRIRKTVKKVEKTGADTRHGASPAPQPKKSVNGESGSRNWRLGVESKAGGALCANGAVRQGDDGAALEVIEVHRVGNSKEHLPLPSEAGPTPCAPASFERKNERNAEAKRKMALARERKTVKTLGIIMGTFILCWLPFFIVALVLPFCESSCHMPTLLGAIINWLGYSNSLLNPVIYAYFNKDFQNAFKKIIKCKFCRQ

[10] = biological target: DAT (Homo sapiens, UniProt Q01959); assay: Neurotransmitter transporter uptake assay (blocker)
[11] = biological target: CNR1 (Homo sapiens, UniProt P21554); assay: SAFETYscan EFC-based cAMP secondary messenger assay (agonist/antagonist mode)
[12] = in vitro; assay type: in vitro ADME, human; settings: for half-life: human, 37° C., read-out: half-life (T1/2)
Source text: A fundamental evaluation in drug development is the assessment of absorption, distribution, metabolism, excretion, and pharmacokinetics (ADME/PK) (Eddershaw et al., 2000, Drug Discovery Today 5(9): 409-414). […] Drug stability upon exposure to human liver microsomes and liver S9 cellular fractions is a common in vitro assay to approximate in vivo, liver-based drug metabolism (Richardson et al., 2016 Drug Metabolism Letters 10:83-90). First-pass metabolism is also often approximated in vitro using intestinal microsome and cellular S9 fractions (Hatley et al., 2017, Biopharmaceuticals & Drug Disposition, 38(2):155-160). Further, it is well known that human serum, and particularly circulating serum esterases can contribute to systemic drug metabolism (Williams, F M 1987, Pharmacology and Therapeutics, 34:99-109). Many pharmacological agents are classified as prodrugs, as they undergo metabolic transformation in vivo upon administration to release the active drug compound into the systemic compartment (Zawilska J B, et al. 2013, Pharmacological Reports, 65:1-14). Psilocybin, a serotonergic psychedelic agent, is well known prodrug that is metabolized into the psychoactive product, psilocin (Dinis-Oliveira, R J 2017, Drug Metabolism Reviews, 49(1):84-91). To evaluate the capacity of test molecules to similarly serve as prodrugs of psilocin, time-dependent, metabolic stability assays using human AB serum, human intestinal microsomes (HIM), human intestinal S9 fractions (HIS9), human liver microsomes (HLM), human liver S9 fractions (HLS9), human alkaline phosphatase, and porcine esterase were performed. […] Liquid chromatography coupled mass spectrometry (LC-MS) was employed to track the conversion of the test molecules into psilocin. All intestinal and liver fractions and NADPH RapidStart reagent was purchased from Sekisui/XenoTech. Human AB serum was purchased from Sigma. For intestine and liver metabolism assays, 2.5 μM candidate compounds were incubated in 400 μg/ml of each cellular fraction (HLM, HLS9, HIM, or HIS9) in 50 mM potassium phosphate buffer (pH 7.4) containing 3 mM MgCl2 and 1 mM EDTA supplemented with NADPH RapidStart at 37° C. Samples were taken at the start of the assay, and at every 20 minutes for 2 hours. Time-point samples were precipitated with 1:1 volume of acetonitrile to quench the reaction before centrifugation at 4000×g for 20 minutes. Supernatants were analyzed for the presence of candidate prodrugs (parent molecule) and psilocin (the predicted metabolite) using Orbitrap LC-MS (Thermo Scientific) using previously described methods (Menéndez-Perdomo et al., 2021, J. Mass Spectrom., 56: e4683). The serum assays were carried out in 10% human AB serum in 50 mM potassium phosphate buffer (pH 7.4) containing 3 mM MgCl2 and 1 mM EDTA. Bovine alkaline phosphatase assays were carried out using one unit of purified enzyme in 50 mM potassium phosphate buffer (pH 7.4) containing 3 mM MgCl2 and 1 mM EDTA. Porcine esterase assays were carried out using one unit of purified enzyme in 50 mM potassium phosphate buffer (pH 7.4) containing 3 mM MgCl2 and 1 mM EDTA. Assay concentrations (μM) of both parent ‘prodrug’ molecule and psilocin metabolite, as quantified through LC-MS using routine standard curve procedures, were plotted as functions of assay time (minutes). The metabolism rate (T1/2) was determined from the metabolism curve plot using the one phase decay feature of GraphPad PRISM software (Version 9.2.0). The quantity of parent prodrug at time zero was set as 100%.
Positive controls were first tested to ensure that assays were functioning properly.

Chain of CNR1 (P21554 whole entry): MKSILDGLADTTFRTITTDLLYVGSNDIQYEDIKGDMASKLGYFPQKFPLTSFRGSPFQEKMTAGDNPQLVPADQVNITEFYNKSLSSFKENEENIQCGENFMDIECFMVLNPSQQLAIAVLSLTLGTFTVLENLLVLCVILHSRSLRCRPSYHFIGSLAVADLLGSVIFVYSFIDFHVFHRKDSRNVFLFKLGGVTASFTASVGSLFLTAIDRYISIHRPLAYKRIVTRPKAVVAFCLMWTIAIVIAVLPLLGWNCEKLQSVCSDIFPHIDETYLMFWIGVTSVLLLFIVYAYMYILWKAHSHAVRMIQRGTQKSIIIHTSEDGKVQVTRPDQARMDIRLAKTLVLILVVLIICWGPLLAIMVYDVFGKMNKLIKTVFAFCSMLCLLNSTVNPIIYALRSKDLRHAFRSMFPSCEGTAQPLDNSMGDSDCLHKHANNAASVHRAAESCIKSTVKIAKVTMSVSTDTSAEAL
Chain of HTR3A (5-HT3A) (P46098 24-478): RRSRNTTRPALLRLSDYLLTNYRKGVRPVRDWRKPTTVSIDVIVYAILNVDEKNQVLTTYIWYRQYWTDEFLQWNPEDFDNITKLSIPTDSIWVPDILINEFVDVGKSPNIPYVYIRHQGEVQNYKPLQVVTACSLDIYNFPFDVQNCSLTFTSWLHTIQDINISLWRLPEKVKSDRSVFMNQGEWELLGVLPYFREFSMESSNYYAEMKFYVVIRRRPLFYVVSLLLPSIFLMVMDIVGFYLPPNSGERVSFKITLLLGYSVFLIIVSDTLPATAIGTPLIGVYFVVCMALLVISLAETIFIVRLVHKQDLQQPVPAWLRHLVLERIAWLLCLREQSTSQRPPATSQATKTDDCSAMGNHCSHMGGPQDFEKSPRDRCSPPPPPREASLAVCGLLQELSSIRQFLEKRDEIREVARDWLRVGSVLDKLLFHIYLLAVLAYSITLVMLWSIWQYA
Chain of HTR1B (5-HTR1B) (P28222 whole entry): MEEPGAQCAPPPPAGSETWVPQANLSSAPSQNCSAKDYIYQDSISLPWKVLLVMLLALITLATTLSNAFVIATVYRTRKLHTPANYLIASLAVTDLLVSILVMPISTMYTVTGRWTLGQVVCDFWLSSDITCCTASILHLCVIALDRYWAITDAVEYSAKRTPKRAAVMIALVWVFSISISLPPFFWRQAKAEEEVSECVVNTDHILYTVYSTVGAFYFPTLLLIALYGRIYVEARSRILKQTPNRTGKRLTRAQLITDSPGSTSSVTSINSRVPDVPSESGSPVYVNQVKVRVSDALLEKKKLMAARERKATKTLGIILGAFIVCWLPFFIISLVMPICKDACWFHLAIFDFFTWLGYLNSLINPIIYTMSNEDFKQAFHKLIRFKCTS
Chain of ADRA2A (P08913 whole entry): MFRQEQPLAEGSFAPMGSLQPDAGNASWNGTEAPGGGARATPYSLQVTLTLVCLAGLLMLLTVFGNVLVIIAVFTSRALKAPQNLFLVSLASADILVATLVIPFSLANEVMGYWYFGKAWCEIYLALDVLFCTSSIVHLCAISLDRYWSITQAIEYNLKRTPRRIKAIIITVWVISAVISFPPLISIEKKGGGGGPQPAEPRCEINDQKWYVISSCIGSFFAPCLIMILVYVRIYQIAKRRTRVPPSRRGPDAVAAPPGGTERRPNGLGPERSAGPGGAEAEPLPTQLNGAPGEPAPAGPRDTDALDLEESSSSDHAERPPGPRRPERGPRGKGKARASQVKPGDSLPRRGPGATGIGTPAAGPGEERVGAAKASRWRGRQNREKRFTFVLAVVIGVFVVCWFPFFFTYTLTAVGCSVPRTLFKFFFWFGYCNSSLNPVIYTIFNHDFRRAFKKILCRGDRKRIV
Chain of DRD2S (P14416 1-414 isoform P14416-2): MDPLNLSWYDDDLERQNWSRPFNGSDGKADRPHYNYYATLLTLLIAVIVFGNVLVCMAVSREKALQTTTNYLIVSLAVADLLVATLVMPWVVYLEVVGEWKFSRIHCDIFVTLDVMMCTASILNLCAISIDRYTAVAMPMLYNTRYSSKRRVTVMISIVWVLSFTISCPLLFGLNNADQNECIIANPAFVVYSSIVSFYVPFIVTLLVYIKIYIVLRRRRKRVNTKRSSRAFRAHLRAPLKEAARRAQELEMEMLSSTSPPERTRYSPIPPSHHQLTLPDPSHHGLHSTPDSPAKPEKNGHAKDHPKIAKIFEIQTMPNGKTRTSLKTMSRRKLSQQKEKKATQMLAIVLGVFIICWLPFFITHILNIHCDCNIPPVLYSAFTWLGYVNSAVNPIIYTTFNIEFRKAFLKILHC
Chain of NET (P23975 whole entry): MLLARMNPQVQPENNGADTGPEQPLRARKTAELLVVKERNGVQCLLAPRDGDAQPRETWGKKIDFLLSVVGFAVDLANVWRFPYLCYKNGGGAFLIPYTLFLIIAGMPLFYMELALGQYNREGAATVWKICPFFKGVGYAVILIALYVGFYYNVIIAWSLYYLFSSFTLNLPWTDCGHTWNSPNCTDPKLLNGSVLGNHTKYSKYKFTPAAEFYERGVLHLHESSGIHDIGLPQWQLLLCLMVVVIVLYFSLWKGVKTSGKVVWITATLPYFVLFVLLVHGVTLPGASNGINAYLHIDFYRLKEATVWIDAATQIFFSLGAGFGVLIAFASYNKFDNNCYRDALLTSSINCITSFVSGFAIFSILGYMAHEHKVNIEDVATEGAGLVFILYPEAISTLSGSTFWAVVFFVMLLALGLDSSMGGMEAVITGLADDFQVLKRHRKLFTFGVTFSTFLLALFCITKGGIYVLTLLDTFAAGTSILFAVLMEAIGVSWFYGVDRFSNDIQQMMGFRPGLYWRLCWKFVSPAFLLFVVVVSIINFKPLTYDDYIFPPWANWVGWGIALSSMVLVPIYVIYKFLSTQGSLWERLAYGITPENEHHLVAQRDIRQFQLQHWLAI
T1 sequence (P21397 whole entry, species assumed): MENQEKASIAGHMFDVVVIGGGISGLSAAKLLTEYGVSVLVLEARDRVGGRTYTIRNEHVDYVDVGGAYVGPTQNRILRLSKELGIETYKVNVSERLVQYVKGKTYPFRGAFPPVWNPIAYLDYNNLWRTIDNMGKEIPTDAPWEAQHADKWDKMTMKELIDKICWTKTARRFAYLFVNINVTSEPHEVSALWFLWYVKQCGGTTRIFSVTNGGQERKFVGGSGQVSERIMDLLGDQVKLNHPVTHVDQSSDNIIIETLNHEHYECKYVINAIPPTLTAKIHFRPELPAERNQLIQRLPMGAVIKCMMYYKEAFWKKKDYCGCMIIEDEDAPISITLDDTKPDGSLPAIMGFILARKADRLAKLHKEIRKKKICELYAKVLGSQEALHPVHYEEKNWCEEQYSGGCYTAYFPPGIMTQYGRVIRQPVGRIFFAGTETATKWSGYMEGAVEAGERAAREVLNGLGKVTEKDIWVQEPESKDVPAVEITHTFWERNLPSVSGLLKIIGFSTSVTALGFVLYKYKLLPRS
Chain of SERT (P31645 whole entry): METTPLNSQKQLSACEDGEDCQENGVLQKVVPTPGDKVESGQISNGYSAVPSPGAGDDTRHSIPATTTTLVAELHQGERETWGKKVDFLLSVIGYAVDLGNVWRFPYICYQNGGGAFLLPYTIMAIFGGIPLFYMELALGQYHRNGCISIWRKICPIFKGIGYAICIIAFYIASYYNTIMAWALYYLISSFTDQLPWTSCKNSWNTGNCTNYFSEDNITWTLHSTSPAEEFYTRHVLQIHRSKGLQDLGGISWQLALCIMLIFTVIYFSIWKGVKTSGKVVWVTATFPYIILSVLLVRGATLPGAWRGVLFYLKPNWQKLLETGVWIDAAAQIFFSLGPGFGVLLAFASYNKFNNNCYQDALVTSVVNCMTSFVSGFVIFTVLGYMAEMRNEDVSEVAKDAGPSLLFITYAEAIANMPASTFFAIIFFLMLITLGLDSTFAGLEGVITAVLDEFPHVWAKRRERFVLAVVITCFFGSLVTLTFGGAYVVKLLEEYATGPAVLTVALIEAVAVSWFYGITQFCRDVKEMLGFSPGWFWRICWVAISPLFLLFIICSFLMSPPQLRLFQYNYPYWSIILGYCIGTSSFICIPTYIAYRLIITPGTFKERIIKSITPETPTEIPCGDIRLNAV
Chain of DAT (Q01959 whole entry): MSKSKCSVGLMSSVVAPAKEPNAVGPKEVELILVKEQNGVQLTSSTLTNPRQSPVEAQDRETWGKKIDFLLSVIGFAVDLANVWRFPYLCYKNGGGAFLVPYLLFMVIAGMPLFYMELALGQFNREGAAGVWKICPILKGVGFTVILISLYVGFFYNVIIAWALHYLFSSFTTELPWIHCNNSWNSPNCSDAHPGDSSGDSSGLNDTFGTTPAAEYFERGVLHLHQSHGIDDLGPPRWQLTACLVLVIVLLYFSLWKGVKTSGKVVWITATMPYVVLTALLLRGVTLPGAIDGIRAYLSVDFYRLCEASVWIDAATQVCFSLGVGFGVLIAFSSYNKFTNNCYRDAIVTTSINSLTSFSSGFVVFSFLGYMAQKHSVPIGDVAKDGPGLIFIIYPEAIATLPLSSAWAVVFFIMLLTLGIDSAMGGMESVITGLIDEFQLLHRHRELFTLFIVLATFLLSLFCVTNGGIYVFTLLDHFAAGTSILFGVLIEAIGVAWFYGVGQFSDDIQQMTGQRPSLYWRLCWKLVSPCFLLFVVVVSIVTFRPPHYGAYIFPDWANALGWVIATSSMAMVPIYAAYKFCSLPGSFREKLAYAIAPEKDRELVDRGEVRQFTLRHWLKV

CN(C)CCc1c[nH]c2cccc(OC(=O)SCc3ccccc3)c12 [E(VI)]
EC50 [1]: > 100 µM
IC50 [1]: 1.87 µM
EC50 [2]: > 100 µM
IC50 [2]: 19.8 µM
IC50 [3]: 9.25 µM
EC50 [4]: 11.4 µM
IC50 [4]: > 100 µM
IC50 [5]: > 100 µM
EC50 [6]: 0.236 µM
IC50 [6]: > 100 µM
IC50 [7]: 9.06 µM
EC50 [8]: > 100 µM
IC50 [8]: 13.3 µM
EC50 at 5-HT1A ([9]; cAMP assay, forskolin-stimulated +5-HT1A cells): neither molecule engaged 5-HT1A with sufficient potency to calculate an EC50 value
cAMP level / 5-HT1A receptor modulation (in words) ([9]; forskolin-stimulated +5-HT1A vs -5-HT1A cells, increasing ligand): mild receptor modulation at higher ligand concentrations
IC50 [10]: 1 µM
EC50 [11]: > 100 µM
IC50 [11]: 97 µM
metabolic stability / conversion to psilocin (in words) ([12]; HLM): quickly converted to psilocin in liver fractions and serum
metabolic stability / conversion to psilocin (in words) ([12]; HLS9): quickly converted to psilocin in liver fractions and serum
half-life ([12]; microsomes, pH 7.4, HLM, 2.5 μM compound): 6 min
half-life ([12]; s9, pH 7.4, HLS9, 2.5 μM compound): 5 min
